Target: T1, soluble epoxide hydrolase (sEH) (Homo sapiens, UniProt P34913)
T1 construct: purchased Cayman 10011669
T1 sequence (P34913 1-555): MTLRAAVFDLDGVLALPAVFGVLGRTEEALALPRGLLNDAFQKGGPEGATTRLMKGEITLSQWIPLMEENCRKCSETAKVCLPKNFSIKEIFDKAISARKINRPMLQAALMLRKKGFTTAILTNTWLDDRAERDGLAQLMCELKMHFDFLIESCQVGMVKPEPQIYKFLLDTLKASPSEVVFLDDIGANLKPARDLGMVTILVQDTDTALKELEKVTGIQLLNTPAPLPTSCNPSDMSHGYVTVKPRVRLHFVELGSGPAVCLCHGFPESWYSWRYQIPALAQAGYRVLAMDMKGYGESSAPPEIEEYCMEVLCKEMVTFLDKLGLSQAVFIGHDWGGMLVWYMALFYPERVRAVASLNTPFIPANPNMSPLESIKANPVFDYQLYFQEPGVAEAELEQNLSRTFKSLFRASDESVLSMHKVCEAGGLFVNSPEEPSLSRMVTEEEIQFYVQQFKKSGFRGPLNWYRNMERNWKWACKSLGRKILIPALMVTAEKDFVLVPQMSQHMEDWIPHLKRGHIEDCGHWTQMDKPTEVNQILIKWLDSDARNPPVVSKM
Assay: sEH inhibition assay (PHOME fluorescent substrate)
Assay type: biochemical
Conditions: 37 °C, mean ± SEM; for inhibition at 100 µM: 100 μM compound, after 40 min, read-out: Inhibition of compounds on sEH, 100 μM (%); for IC50: tested three times, read-out: Inhibition of compounds on sEH, IC50
Protocol: The sEH assay was performed as described previously, with minor modifications. For determining inhibitory activity, 130 µL of ∼83 µg/mL sEH in 25 mM bis-Tris–HCl buffer (pH 7.0) containing 0.1% BSA was added to either 20 µL of inhibitor dissolved in MeOH, or MeOH. Next, 50 µL of the 10 µM substrate (PHOME) was added to each mixture and incubated at 37 °C to allow for sEH hydrolysis.
Inhibitory activity was calculated using the following equations: (1) Inhibitoryactivityrate(%)=[(ΔC–ΔI)/ΔC]×100 where ΔC and ΔI are the intensity of the control and inhibitor, respectively, after 40 min. (2) y=y0+(a×x/b+x) where y0 is the minimum value of the y-axis, a is the difference between the maximum and minimum values, and b is the x value at 50% of the a value.
The results were analysed using Sigma Plot (Systat Software Inc., San Jose, CS).

inhibition at 100 µM	IC50	SMILES
55.6 ± 0.7%	23 ± 0.7 µM	COc1cc(C2Oc3c(OC)cc(CCCO)cc3C2CO)ccc1OC1OC(C)C(O)C(O)C1O (centres unmarked) [Compound 7, icariside E4]
91.8 ± 4.5%	11.4 ± 2.3 µM	O=C1CC(c2ccccc2)Oc2cc(O)c(C3OC(CO)C(O)C(O)C3O)c(O)c21 [Compound 2, pinocembrin 6-C-β-D-glucoside]
70.7 ± 0.4%	16.1 ± 3.2 µM	O=C1c2c(O)cc(O)cc2OC(c2cc(O)cc(O)c2)C1O (centres unmarked) [Compound 10, 3,5,7-trihydroxy-2–(3,5-dihydroxyphenyl) chroman-4-one]
64.8 ± 1.4%	36.9 ± 2.6 µM	COc1cc(C2Oc3c(OC)cc(CCCO)cc3C2CO[C@@H]2OC[C@@H](O)[C@H](O)[C@H]2O)ccc1O (stereo partly drawn) [Compound 8, 2,3-dihydro-2–(4-hydroxy-3-methoxyphenyl)-5–(3-hydroxypropyl)-7-methoxy-3-benzofuranylmethyl β-D-xylopyranoside]
< 38%		Oc1cc(O)c2c(c1)O[C@H](c1ccc(O)c(O)c1)[C@@H](O)C2 [Compound 5, (+)-catechin]
65.9 ± 0.8%	26.3 ± 4.5 µM	OCc1ccc(O)cn1 [Compound 4, 6-hydroxymethyl-3-pyridinol]
< 38%		O=C1CC(c2ccc(O)cc2)Oc2cc(O)c(C3OC(CO)C(O)C(O)C3O)c(O)c21 [Compound 3, naringenin-6-C-β-D-glucopyranoside]
59.4 ± 2.5%	14.5 ± 0.5 µM	O=C1OC2Cc3c(O)cc(OC4OCC(O)(CO)C4O)cc3OC2c2ccc(O)c(O)c21 [Compound 1, (6aS,12aR)-3,4,8-trihydroxy-6a-7-dihydroisochromeno[4,3-b]chromen-5(12aH)-one-10-O-β-apiofuranoside]
69.8 ± 2.2%	16 ± 3.2 µM	OCC1(O)COC(Oc2cc(O)c3c(c2)OC(c2ccc(O)c(O)c2)C(O)C3)C1O (stereo not drawn) [Compound 6, catechin-7-O-β-apiofuranoside]

SMILES	inhibition at 100 µM	IC50
O=C(O)c1ccc(O)c(O)c1 [Compound 9, protocatechuic acid]	< 38%	

Source: PMC8153708, “Inhibition of soluble epoxide hydrolase by phytochemical constituents of the root bark of Ulmus davidiana var. japonica” (Journal of Enzyme Inhibition and Medicinal Chemistry, 2021)
